Legend:
[1] = target: Homeodomain-interacting protein kinase 2 (Homo sapiens, UniProt Q9H2X6); experiment: Selectivity interaction (KinomeScan (DiscoverX)) EUB0000666a HIPK2; settings: at 10 µM
[2] = target: T1, MAP/microtubule affinity-regulating kinase 4 (Homo sapiens) (UniProt Q96L34); experiment: Selectivity interaction (KinomeScan (DiscoverX)) EUB0001049a MARK4; settings: at 1 µM
T1 sequence (whole entry): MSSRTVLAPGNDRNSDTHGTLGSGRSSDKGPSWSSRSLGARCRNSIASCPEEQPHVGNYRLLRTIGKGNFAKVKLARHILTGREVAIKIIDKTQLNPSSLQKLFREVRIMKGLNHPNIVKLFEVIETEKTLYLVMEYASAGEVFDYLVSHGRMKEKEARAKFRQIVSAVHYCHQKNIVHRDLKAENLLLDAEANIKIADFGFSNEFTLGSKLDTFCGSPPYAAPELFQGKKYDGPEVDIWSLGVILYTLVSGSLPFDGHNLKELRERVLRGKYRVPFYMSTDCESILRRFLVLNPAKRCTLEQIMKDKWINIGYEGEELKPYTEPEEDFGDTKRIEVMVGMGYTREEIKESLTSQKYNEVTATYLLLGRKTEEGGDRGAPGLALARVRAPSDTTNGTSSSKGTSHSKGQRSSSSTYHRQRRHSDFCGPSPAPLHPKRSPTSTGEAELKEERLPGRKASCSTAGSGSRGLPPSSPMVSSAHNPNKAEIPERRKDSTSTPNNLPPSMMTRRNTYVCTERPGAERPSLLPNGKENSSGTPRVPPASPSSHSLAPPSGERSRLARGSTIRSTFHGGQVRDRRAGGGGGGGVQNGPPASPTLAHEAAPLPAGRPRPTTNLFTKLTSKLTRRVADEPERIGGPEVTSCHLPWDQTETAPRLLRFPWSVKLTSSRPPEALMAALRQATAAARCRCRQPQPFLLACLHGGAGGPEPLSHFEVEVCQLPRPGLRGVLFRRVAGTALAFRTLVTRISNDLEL

[3] = target: T2, Dual specificity mitogen-activated protein kinase kinase 7 (Homo sapiens) (UniProt O14733); experiment: Selectivity interaction (Millipore kinase profiler) EUB0000124b MAP2K7; settings: at 10 µM
T2 sequence (whole entry): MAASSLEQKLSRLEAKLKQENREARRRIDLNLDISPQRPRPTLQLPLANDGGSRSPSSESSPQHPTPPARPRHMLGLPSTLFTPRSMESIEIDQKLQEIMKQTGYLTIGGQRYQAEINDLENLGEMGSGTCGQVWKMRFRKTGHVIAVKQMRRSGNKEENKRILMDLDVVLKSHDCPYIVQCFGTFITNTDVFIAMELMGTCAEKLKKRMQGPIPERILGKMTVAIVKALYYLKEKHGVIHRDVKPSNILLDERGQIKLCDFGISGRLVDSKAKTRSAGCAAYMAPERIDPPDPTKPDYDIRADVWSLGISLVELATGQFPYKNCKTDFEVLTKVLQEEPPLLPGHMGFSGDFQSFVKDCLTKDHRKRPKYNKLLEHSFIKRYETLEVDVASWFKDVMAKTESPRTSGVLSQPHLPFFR

Ephrin type-A receptor 4 = Ephrin type-A receptor 4 (Homo sapiens, UniProt P54764); experiment: Selectivity interaction (ProQinase) EUB0000171b EPHA4
[4] = target: T3, Dual specificity mitogen-activated protein kinase kinase 4 (Homo sapiens) (UniProt P45985); experiment: Selectivity interaction (ActivX KiNativ screen (ex vivo kinase selectivity in human PBMCs)) EUB0001619a MAP2K4; assay type: cell-based; settings: PBMC, at 1 µM
T3 sequence (whole entry): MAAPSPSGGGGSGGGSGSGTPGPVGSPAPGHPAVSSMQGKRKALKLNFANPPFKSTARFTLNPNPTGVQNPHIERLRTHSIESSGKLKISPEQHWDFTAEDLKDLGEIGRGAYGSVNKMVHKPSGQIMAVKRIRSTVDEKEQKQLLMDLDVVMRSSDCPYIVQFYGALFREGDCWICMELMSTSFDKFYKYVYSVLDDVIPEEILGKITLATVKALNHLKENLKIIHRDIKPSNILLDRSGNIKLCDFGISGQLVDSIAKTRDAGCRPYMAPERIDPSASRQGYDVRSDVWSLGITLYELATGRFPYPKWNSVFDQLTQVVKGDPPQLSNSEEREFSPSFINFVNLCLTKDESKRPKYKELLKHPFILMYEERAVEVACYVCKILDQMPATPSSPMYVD

[5] = target: T4, Phosphatidylinositol 5-phosphate 4-kinase type-2 gamma (Homo sapiens) (UniProt Q8TBX8); experiment: Selectivity interaction (KinomeScan (DiscoverX)) EUB0000092b PIP4K2C; settings: at 10 µM
T4 sequence (whole entry): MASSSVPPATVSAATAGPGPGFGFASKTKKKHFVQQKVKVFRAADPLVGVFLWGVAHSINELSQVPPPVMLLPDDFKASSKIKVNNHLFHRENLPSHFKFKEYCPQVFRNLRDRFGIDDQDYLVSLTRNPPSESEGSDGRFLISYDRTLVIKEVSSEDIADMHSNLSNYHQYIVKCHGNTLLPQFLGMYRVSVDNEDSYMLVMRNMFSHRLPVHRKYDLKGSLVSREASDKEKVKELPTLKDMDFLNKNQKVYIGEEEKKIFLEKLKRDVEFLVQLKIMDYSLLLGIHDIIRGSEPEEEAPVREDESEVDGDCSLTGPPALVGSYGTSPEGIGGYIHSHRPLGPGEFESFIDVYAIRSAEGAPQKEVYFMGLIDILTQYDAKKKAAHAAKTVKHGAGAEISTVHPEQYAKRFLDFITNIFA

Chain of Ephrin type-A receptor 4 (P54764 whole entry): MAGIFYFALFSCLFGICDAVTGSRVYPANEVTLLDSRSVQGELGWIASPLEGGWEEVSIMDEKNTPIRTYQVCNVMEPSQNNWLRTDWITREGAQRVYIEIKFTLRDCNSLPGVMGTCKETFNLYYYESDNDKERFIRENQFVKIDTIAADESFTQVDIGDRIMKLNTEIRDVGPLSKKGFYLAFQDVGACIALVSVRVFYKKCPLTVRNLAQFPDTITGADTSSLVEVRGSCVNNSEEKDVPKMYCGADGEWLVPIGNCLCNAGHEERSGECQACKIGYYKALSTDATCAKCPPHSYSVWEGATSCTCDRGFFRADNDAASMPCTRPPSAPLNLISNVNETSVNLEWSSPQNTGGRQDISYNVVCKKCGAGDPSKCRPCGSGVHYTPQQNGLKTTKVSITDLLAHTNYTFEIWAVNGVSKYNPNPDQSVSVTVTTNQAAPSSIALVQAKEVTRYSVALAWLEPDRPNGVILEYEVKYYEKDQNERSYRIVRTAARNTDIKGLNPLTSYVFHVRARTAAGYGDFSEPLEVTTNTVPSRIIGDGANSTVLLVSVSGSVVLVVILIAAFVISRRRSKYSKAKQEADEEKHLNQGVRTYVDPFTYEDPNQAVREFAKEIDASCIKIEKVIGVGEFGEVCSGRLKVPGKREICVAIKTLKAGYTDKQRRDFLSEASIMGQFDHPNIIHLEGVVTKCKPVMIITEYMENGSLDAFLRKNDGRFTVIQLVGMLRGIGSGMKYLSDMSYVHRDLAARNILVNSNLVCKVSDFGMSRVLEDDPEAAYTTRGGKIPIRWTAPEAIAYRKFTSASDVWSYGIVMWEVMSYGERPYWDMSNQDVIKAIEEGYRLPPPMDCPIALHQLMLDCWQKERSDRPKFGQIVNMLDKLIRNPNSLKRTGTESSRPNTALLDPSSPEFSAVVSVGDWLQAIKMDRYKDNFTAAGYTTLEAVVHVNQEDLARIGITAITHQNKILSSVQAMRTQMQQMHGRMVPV
Chain of Homeodomain-interacting protein kinase 2 (Q9H2X6 whole entry, looked up): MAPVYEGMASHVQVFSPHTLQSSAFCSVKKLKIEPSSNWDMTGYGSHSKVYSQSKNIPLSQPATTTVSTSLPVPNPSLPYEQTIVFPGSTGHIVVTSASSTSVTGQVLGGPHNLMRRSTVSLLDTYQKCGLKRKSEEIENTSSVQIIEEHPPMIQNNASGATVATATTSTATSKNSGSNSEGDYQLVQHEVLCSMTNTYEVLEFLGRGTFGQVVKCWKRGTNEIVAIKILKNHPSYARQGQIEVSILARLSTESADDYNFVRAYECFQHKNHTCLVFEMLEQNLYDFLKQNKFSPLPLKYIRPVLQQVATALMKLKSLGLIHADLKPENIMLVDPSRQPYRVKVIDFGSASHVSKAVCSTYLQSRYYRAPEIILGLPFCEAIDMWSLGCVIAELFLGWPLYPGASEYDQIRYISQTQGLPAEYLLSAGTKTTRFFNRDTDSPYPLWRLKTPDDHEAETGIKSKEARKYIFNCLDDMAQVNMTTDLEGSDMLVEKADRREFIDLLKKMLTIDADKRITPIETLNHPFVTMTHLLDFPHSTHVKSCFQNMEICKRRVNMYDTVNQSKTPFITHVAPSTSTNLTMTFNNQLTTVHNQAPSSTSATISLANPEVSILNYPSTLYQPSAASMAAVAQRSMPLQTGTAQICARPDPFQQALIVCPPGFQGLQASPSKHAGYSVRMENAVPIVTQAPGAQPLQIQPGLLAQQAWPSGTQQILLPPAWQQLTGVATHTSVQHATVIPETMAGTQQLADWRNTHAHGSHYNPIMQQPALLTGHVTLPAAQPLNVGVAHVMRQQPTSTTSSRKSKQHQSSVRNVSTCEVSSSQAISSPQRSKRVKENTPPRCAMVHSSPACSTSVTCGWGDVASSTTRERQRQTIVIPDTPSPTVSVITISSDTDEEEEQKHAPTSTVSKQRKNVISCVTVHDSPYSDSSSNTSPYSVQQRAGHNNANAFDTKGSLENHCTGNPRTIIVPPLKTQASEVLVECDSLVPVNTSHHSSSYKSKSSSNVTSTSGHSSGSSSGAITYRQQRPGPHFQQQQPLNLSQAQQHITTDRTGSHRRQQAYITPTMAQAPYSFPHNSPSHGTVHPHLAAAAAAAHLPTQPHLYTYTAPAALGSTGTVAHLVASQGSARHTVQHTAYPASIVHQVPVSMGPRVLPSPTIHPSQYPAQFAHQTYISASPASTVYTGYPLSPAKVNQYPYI

## O=C(NOC[C@H](O)CO)c1ccc(F)c(F)c1Nc1ccc(I)cc1F
[1]
  % of control: 100%

## COc1cc(Nc2nc(C)cc(-c3cnn4nc(OC)ccc34)n2)cc(C(F)(F)F)c1
[2]
  % of control: 100%

## CC(=O)Nc1cccc(-n2c(=O)n(C3CC3)c(=O)c3c(Nc4ccc(I)cc4F)n(C)c(=O)c(C)c32)c1
[3]
  % of control: 109%

## C=CC(=O)Nc1cccc(C(=O)Nc2ccc(Nc3cc(-c4[nH]c(SC)nc4C)ccn3)cc2)c1
Ephrin type-A receptor 4; at 1 µM
  % of control: 93%
Ephrin type-A receptor 4; at 5 µM
  % of control: 78%

## N#Cc1cccc(-c2c[nH]c3ncnc(N4CCOCC4)c23)c1
[4]
  % of inhibition: 19%

## CCC(=O)N1CCN(c2ccc(-n3c(=O)ccc4cnc5ccc(-c6cnc7ccccc7c6)cc5c43)cc2C(F)(F)F)CC1
[5]
  % of control: 58%

Reference: ChEMBL document CHEMBL5465560, “Selectivity Literature for EUbOPEN Chemogenomic Library” (2024)
